According to ChEMBL document CHEMBL1139234, “Optimization of monocarboxylate transporter 1 blockers through analysis and modulation of atropisomer interconversion properties” (J Med Chem, 2007):
In brackets after ≈: the same amount, converted by molar mass.

How the values were obtained:
[1] = Solubility of the compound; type: physicochemical
physchem = details: octanol/water

| SMILES | solubility [1] [µg/mL] | logD (physchem) |
| --- | --- | --- |
| CC(C)Cn1c(=O)n(C)c(=O)c2c(C(=O)N3CC[C@@H](O)C3)c(Cc3ccnc4ccc(F)cc34)sc21 | – | 2 |
| CC(C)Cn1c(=O)n(C)c(=O)c2c(C(=O)N3C[C@H](O)CO3)c(Cc3ccccc3C(F)(F)F)sc21 | – | 3.2 |
| CNc1nc2ccccc2n1Cc1sc2c(c1C(=O)N1C[C@H](O)CO1)c(=O)n(C)c(=O)n2CC(C)C | – | 1.8 |
| CC(C)Cn1c(=O)n(C)c(=O)c2c(C(=O)N3CC[C@@H](O)C3)c(Oc3cccc4ccccc34)sc21 | – | 2.9 |
| CC(C)n1c(=O)n(C)c(=O)c2c(C(=O)N3CCS(=O)(=O)C3)c(Cc3ccccc3C(F)(F)F)sc21 | – | 2.6 |

Continued, values first:

| solubility [1] [µg/mL] | logD (physchem) | SMILES |
| --- | --- | --- |
| 500 (≈ 1.02 mM) | – | CC(C)Cn1c(=O)n(C)c(=O)c2c(C(=O)N3CC[C@@H](O)C3)c(Cc3ccnc4ccccc34)sc21 |
| 2900 (≈ 6.28 mM) | 1.1 | Cc1n[nH]c(C)c1Cc1sc2c(c1C(=O)N1C[C@H](O)CO1)c(=O)n(C)c(=O)n2CC(C)C |
| – | 2 | CC(C)Cn1c(=O)n(C)c(=O)c2c(C(=O)N3C[C@H](O)CO3)c(Cc3c[nH]c4ncccc34)sc21 |
| – | 2.3 | CON(C)C(=O)c1c(Cn2c(C)nc(Cl)c2Cl)sc2c1c(=O)n(C)c(=O)n2CC(C)C |
